# According to patent EP4635500A1, “THERAPEUTIC AGENT FOR BACTERIAL INFECTION” (Sumitomo Pharma Co., Ltd., priority 2022, dated 2024):
# Where two headings read alike, the source gives them in different places.
# Assays:
# [1] = test system: carbapenemase-producing Enterobacteriaceae (CPE); experiment: MIC in human urine and CAMHB at pH 5.0 to 8.0 (Example 13, Tables 29, 30); settings: Klebsiella pneumoniae
# [2] = cited from earlier work
# Klebsiella pneumoniae = experiment: MIC, Gram-negative bacteria clinically isolated in the United States (Example 8, Table 16); type: cell-based; settings: K. pneumoniae (80 strains) isolated in the United States, Compound A µg/mL in parentheses
# P. aeruginosa = experiment: as above; type: cell-based; settings: Pseudomonas aeruginosa; P. aeruginosa (80 strains) isolated in the United States; Compound A µg/mL in parentheses
# [3] = test system: carbapenemase-producing Enterobacteriaceae (CPE); experiment: MIC with human plasma or human serum albumin added (Example 12, Table 28); type: cell-based
# Acinetobacter baumannii = experiment: Systemic infection lethal mouse model, ED50 (Example 15, Table 34); settings: for ED50: Acinetobacter baumannii, in Mus musculus; for Survival rate: 7 days after infection
# Protocol: The test strains on the agar medium were suspended in saline and adjusted to a Klett unit of about 200 using a Klett Photoelectric Colorimeter. […] Male ICR mice were inoculated intraperitoneally with 0.2 mL of the bacterial suspension. Two hours after the inoculation, saline or a solution for administering the agent of each concentration was administered subcutaneously to the mice in a single dose. The number of mice that survived from Day 1 to Day 7 after infection was recorded.
smiles,measurement,setting,value
"C[C@@H](O)[C@H]1C(=O)N2C(C(=O)O)=C(S[C@@H]3CN[C@H](C(=O)N(C)C)C3)[C@H](C)[C@H]12 [MEPM, meropenem]",MIC,"[1]; ATCCBAA2524, pH 8, read-out: MICs of MEPM, K. pneumoniae ATCC BAA-2524 (OXA-48), Human urine pH8.0",1 µg/mL
same,MIC,"[1]; NCTC13439, pH 5, read-out: MICs of MEPM, K. pneumoniae NCTC13439 (VIM-1), CAMHB pH5.0",0.12 µg/mL
same,MIC,"[1]; NCTC13439, pH 5, read-out: MICs of MEPM, K. pneumoniae NCTC13439 (VIM-1), Human urine pH5.0",0.12 µg/mL
same,MIC,"[1]; NCTC13439, pH 6, read-out: MICs of MEPM, K. pneumoniae NCTC13439 (VIM-1), CAMHB pH6.0",1 µg/mL
same,MIC,"[1]; NCTC13439, pH 6, read-out: MICs of MEPM, K. pneumoniae NCTC13439 (VIM-1), Human urine pH6.0",0.06 µg/mL
same,MIC,"[1]; NCTC13439, pH 7, read-out: MICs of MEPM, K. pneumoniae NCTC13439 (VIM-1), Human urine pH7.0",2 µg/mL
same,MIC,"[1]; NCTC13439, pH 7.2, read-out: MICs of MEPM, K. pneumoniae NCTC13439 (VIM-1), Standard condition (CAMHB pH7.2)",4 µg/mL
same,MIC,"[1]; NCTC13439, pH 8, read-out: MICs of MEPM, K. pneumoniae NCTC13439 (VIM-1), CAMHB pH8.0",4 µg/mL
same,MIC,"[1]; NCTC13439, pH 8, read-out: MICs of MEPM, K. pneumoniae NCTC13439 (VIM-1), Human urine pH8.0",1 µg/mL
same,human protein binding rate,[2]; Reference 2,2%
same,Cmax,"[2]; human, 2 g intravenously for 3 hours every 8 hours, Reference 3",46000 ng/mL
same,MIC50,Klebsiella pneumoniae,≤ 0.125 µg/mL
same,MIC90,Klebsiella pneumoniae,4 µg/mL
same,MIC50,P. aeruginosa,2 µg/mL
same,MIC90,P. aeruginosa,32 µg/mL
same,MIC,"[3]; Escherichia coli, ATCC25922, read-out: MICs of MEPM, E. coli ATCC 25922 (quality control strain), Albumin 0% (standard condition)",0.015 µg/mL
same,MIC,"[3]; Escherichia coli, ATCC25922, read-out: MICs of MEPM, E. coli ATCC 25922 (quality control strain), Albumin 4%",0.03 µg/mL
same,MIC,"[3]; Escherichia coli, ATCC25922, read-out: MICs of MEPM, E. coli ATCC 25922 (quality control strain), Plasma 20%",0.03 µg/mL
same,MIC,"[3]; Escherichia coli, ATCC25922, read-out: MICs of MEPM, E. coli ATCC 25922 (quality control strain), Plasma 50%",0.03 µg/mL
same,MIC,"[3]; Escherichia coli, ATCCBAA2340, read-out: MICs of MEPM, E. coli ATCC BAA-2340 (KPC-3), Albumin 0% (standard condition)",4 µg/mL
same,MIC,"[3]; Escherichia coli, ATCCBAA2340, read-out: MICs of MEPM, E. coli ATCC BAA-2340 (KPC-3), Albumin 4%",4 µg/mL
same,MIC,"[3]; Escherichia coli, ATCCBAA2340, read-out: MICs of MEPM, E. coli ATCC BAA-2340 (KPC-3), Plasma 20%",4 µg/mL
same,MIC,"[3]; Escherichia coli, ATCCBAA2340, read-out: MICs of MEPM, E. coli ATCC BAA-2340 (KPC-3), Plasma 50%",0.5 µg/mL
same,MIC,"[3]; Escherichia coli, ATCCBAA2469, read-out: MICs of MEPM, E. coli ATCC BAA-2469 (NDM-1), Albumin 0% (standard condition)",32 µg/mL
same,MIC,"[3]; Escherichia coli, ATCCBAA2469, read-out: MICs of MEPM, E. coli ATCC BAA-2469 (NDM-1), Albumin 4%",16 µg/mL
same,MIC,"[3]; Escherichia coli, ATCCBAA2469, read-out: MICs of MEPM, E. coli ATCC BAA-2469 (NDM-1), Plasma 20%",≤ 0.12 µg/mL
same,MIC,"[3]; Escherichia coli, ATCCBAA2469, read-out: MICs of MEPM, E. coli ATCC BAA-2469 (NDM-1), Plasma 50%",≤ 0.12 µg/mL
same,MIC,"[3]; Escherichia coli, NCTC13476, read-out: MICs of MEPM, E. coli NCTC 13476 (IMP-1), Albumin 0% (standard condition)",4 µg/mL
same,MIC,"[3]; Escherichia coli, NCTC13476, read-out: MICs of MEPM, E. coli NCTC 13476 (IMP-1), Albumin 4%",4 µg/mL
same,MIC,"[3]; Escherichia coli, NCTC13476, read-out: MICs of MEPM, E. coli NCTC 13476 (IMP-1), Plasma 20%",1 µg/mL
same,MIC,"[3]; Escherichia coli, NCTC13476, read-out: MICs of MEPM, E. coli NCTC 13476 (IMP-1), Plasma 50%",0.5 µg/mL
same,MIC,"[3]; Klebsiella pneumoniae, ATCCBAA2342, read-out: MICs of MEPM, K. pneumoniae ATCC BAA-2342 (KPC-3), Albumin 0% (standard condition)",16 µg/mL
same,MIC,"[3]; Klebsiella pneumoniae, ATCCBAA2342, read-out: MICs of MEPM, K. pneumoniae ATCC BAA-2342 (KPC-3), Albumin 4%",32 µg/mL
same,MIC,"[3]; Klebsiella pneumoniae, ATCCBAA2342, read-out: MICs of MEPM, K. pneumoniae ATCC BAA-2342 (KPC-3), Plasma 20%",16 µg/mL
same,MIC,"[3]; Klebsiella pneumoniae, ATCCBAA2342, read-out: MICs of MEPM, K. pneumoniae ATCC BAA-2342 (KPC-3), Plasma 50%",16 µg/mL
same,MIC,"[3]; Klebsiella pneumoniae, ATCCBAA2344, read-out: MICs of MEPM, K. pneumoniae ATCC BAA-2344 (KPC-2), Albumin 0% (standard condition)",16 µg/mL
same,MIC,"[3]; Klebsiella pneumoniae, ATCCBAA2344, read-out: MICs of MEPM, K. pneumoniae ATCC BAA-2344 (KPC-2), Albumin 4%",32 µg/mL
same,MIC,"[3]; Klebsiella pneumoniae, ATCCBAA2344, read-out: MICs of MEPM, K. pneumoniae ATCC BAA-2344 (KPC-2), Plasma 20%",16 µg/mL
same,MIC,"[3]; Klebsiella pneumoniae, ATCCBAA2344, read-out: MICs of MEPM, K. pneumoniae ATCC BAA-2344 (KPC-2), Plasma 50%",16 µg/mL
same,MIC,"[3]; Klebsiella pneumoniae, ATCCBAA2470, read-out: MICs of MEPM, K. pneumoniae ATCC BAA-2470 (NDM-1), Albumin 0% (standard condition)",16 µg/mL
same,MIC,"[3]; Klebsiella pneumoniae, ATCCBAA2470, read-out: MICs of MEPM, K. pneumoniae ATCC BAA-2470 (NDM-1), Albumin 4%",8 µg/mL
same,MIC,"[3]; Klebsiella pneumoniae, ATCCBAA2470, read-out: MICs of MEPM, K. pneumoniae ATCC BAA-2470 (NDM-1), Plasma 20%",0.5 µg/mL
same,MIC,"[3]; Klebsiella pneumoniae, ATCCBAA2470, read-out: MICs of MEPM, K. pneumoniae ATCC BAA-2470 (NDM-1), Plasma 50%",0.5 µg/mL
same,MIC,"[3]; Klebsiella pneumoniae, ATCCBAA2524, read-out: MICs of MEPM, K. pneumoniae ATCC BAA-2524 (OXA-48), Albumin 0% (standard condition)",1 µg/mL
same,MIC,"[3]; Klebsiella pneumoniae, ATCCBAA2524, read-out: MICs of MEPM, K. pneumoniae ATCC BAA-2524 (OXA-48), Albumin 4%",0.5 µg/mL
same,MIC,"[3]; Klebsiella pneumoniae, ATCCBAA2524, read-out: MICs of MEPM, K. pneumoniae ATCC BAA-2524 (OXA-48), Plasma 20%",2 µg/mL
same,MIC,"[3]; Klebsiella pneumoniae, ATCCBAA2524, read-out: MICs of MEPM, K. pneumoniae ATCC BAA-2524 (OXA-48), Plasma 50%",4 µg/mL
same,MIC,"[3]; read-out: MICs of MEPM, K pneumoniae NCTC13439 (VIM-1), Albumin 0% (standard condition)",4 µg/mL
same,MIC,"[3]; read-out: MICs of MEPM, K pneumoniae NCTC13439 (VIM-1), Albumin 4%",2 µg/mL
same,MIC,"[3]; read-out: MICs of MEPM, K pneumoniae NCTC13439 (VIM-1), Plasma 20%",≤ 0.12 µg/mL
same,MIC,"[3]; read-out: MICs of MEPM, K pneumoniae NCTC13439 (VIM-1), Plasma 50%",≤ 0.12 µg/mL
same,ED50 of MEPM,"Acinetobacter baumannii; Acinetobacter baumannii CDC-303 (OXA-23, OXA-66), single s.c. dose, with cilastatin 100 mg/kg",≥ 300 mg/kg
same,ED50,"Acinetobacter baumannii; read-out: ED50 of MEPM, value estimated by probit analysis, CDC-83 (Serine and metallo), cell prints ND, estimate in brackets, above the highest dose of 300 mg/kg",401 mg/kg
same,ED50,"Acinetobacter baumannii; read-out: ED50 of MEPM, value estimated by probit analysis, CDC-303 (Serine), cell prints ND, estimate in brackets, above the highest dose of 300 mg/kg",6550 mg/kg
same,ED50,"Acinetobacter baumannii; sc, read-out: ED50 of MEPM",≥ 300 mg/kg
same,Survival rate,"Acinetobacter baumannii; CDC-83 (Serine and metallo), Dose 30 mg/kg",0%
same,Survival rate,"Acinetobacter baumannii; CDC-83 (Serine and metallo), Dose 100 mg/kg",10%
same,Survival rate,"Acinetobacter baumannii; CDC-83 (Serine and metallo), Dose 200 mg/kg",20%
same,Survival rate,"Acinetobacter baumannii; CDC-83 (Serine and metallo), Dose 300 mg/kg",40%
same,Survival rate,"Acinetobacter baumannii; CDC-303 (Serine), Dose 50 mg/kg",10%
same,Survival rate,"Acinetobacter baumannii; CDC-303 (Serine), Dose 100 mg/kg",0%
same,Survival rate,"Acinetobacter baumannii; CDC-303 (Serine), Dose 200 mg/kg",10%
same,Survival rate,"Acinetobacter baumannii; CDC-303 (Serine), Dose 300 mg/kg",20%
